“Also recorded” adds a separate entry of the source.
Legend:
[1] = Cocaine reinstatement (relapse) after extinction of intravenous cocaine self-administration; format: in vivo, Sprague-Dawley rat; details: rat; for effect on cocaine-induced relapse, compared with Compound A (result in words): tested similarly
[2] = Nicotine intravenous self-administration; format: in vivo, Wistar-derived rat; details: rat, escalating doses 0.00, 7.5, 10 and 15 mg/kg ip, 30 min before session; Figure 1
[3] = in vivo; cited from earlier work
[4] = target: T1, human mitochondrial aldehyde dehydrogenase (ALDH-2) [인간 미토콘드리아 알데히드 디히드로게나아제 (ALDH-2)] (Homo sapiens, UniProt P05091); details: potency and selectivity in words; cited from earlier work
T1 sequence (P05091 18-517): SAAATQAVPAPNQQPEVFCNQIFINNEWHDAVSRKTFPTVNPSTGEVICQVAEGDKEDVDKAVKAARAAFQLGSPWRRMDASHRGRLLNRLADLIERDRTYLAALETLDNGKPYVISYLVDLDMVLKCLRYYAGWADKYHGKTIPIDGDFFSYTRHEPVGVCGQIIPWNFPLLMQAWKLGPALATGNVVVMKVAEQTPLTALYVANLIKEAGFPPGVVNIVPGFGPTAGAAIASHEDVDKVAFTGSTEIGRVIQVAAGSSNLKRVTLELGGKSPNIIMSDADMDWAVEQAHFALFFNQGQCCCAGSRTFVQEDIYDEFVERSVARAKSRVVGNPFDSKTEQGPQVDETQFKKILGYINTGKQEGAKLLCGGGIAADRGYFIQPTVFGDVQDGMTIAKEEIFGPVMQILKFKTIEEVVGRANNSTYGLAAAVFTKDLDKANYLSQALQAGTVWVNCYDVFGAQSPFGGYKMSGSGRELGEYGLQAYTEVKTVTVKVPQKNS

Row | Structure (SMILES) | effect on cocaine-induced relapse, compared with Compound A (result in words) [1] | suppression of ethanol intake / absorption (in words) [3] | also measured
1 | O=C(O)c1cccc(-c2nc(COc3ccc4c(=O)c(-c5ccc(O)cc5)coc4c3)no2)c1 [3-(3-{[3-(4-히드록시페닐)-4-옥소크로멘-7-일옥시]메틸}-1,2,4-옥사디아졸-5-일)벤조산] | 유사한 결과가 수득되었다 | – | –
2 | CS(=O)(=O)Nc1ccc(-c2coc3cc(OCc4cccc(C(=O)O)c4)ccc3c2=O)cc1 [3-[(3-{4-[(메틸술포닐)아미노]페닐}-4-옥소크로멘-7-일옥시)메틸]벤조산] | – | – | number of bar presses for nicotine (plotted as number of infusions) [2]: 횟수를 감소시켰다; also recorded: 바아 프레스의 횟수를 감소시키는; lever press response after cocaine priming (effect in words) ([1]; 7.5 and 10 mg/kg before priming injection of cocaine (10 mg/kg)): 지렛대 누름 반응에서 증가를 보여주지 않았다 (재발하지 않음); cocaine relapse (effect in words) ([1]; ip, dose-dependent, cocaine priming 10 mg/kg): 투여량에 좌우되어 코카인에 대한 재발을 차단했다
3 | O=c1c(-c2ccc(O)cc2)coc2cc(OCc3noc(-c4cc(F)cc(C(F)(F)F)c4)n3)ccc12 [7-({5-[3-플루오로-5-(트리플루오로메틸)페닐](1,2,4-옥사디아졸-3-일)}메톡시)-3-(4-히드록시페닐)크로멘-4-온] | 유사한 결과가 수득되었다 | – | –
4 | O=c1c(-c2ccc(O)cc2)coc2cc(O[C@@H]3O[C@H](CO)[C@@H](O)[C@H](O)[C@H]3O)ccc12 [다이드진 (daidzein)] | – | 에탄올 섭취 억제에 효과적인 | –
5 | O=c1c(-c2ccc(O)cc2)coc2cc(O)ccc12 [다이드진] | – | 에탄올 흡수 억제에 유효한 | inhibition of ALDH-2 (in words) [4]: 강력하고 선택적인 저해제

From patent publication KR20100130589A, “중독 치료에서의 aldh-2 저해제” (질레드 팔로 알토 인코포레이티드, priority 2008, dated 2009)
